Data: patent publication US20230295234A1, “ANTIMICROBIAL PEPTIDOMIMETICS” (SPEXIS AG, priority 2020, published 2023)
Peptide text beside a SMILES is read from it.

Experiments:
[1] = tested on: Klebsiella pneumoniae SSI3010; conditions: SSI3010
In short: (§1)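 Broth microdilution; cation-adjusted MHII; inoculum ~5×10^5 CFU/mL from 0.5 McFarland saline suspension; peptide two-fold serial dilutions; polysorbate 80 0.002% final; peptide stock 1 mg/mL in water.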

[2] = tested on: Escherichia coli MCR-1 Af 45; conditions: Mueller-Hinton broth II, 18-20 hours at 35° C.
In short: as §1

[3] = tested on: Escherichia coli ATCC 25922; conditions: ATCC 25922
In short: as §1

[4] = tested on: human red blood cells (hRBC); experiment: Hemolysis of human red blood cells; format: cell-based; conditions: red cells of human, 1 h
In short: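 PBS-washed human red blood cells (20% v/v) were incubated with peptide at 200 μg/mL for 1 h at 37 °C with shaking. Supernatant OD was read at 540 nm after 8-fold dilution. Hemolysis is expressed as percent of the water control.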

Structure (SMILES)	Klebsiella pneumoniae SSI3010 MIC [1]	Escherichia coli MCR-1 Af 45 MIC [2]	Escherichia coli ATCC 25922 MIC [3]	Hemolysis at 0.2 g/L [4]
CC[C@H](C)[C@@H]1NC(=O)[C@@H](NC(=O)[C@H](Cc2ccc(O)cc2)NC(=O)[C@@H](NC(=O)[C@@H](NC(=O)[C@@H]2C[C@@H](O)CN2C(=O)[C@@H](N)C(C)C)[C@@H](C)CC)[C@@H](C)O)C(C)(C)SSC[C@@H](C(=O)N[C@@H](CCN)C(=O)N[C@@H](CCCNC(=N)N)C(=O)N[C@@H](Cc2ccc(O)cc2)C(=O)O)NC(=O)[C@H](CCCCN)NC(=O)[C@@H](CCN)NC(=O)[C@H]([C@@H](C)O)NC(=O)[C@H](CCN)NC(=O)[C@H](CCCNC(=N)N)NC1=O [Example 163] (HELM PEPTIDE1{V.[Hyp].I.T.Y.[Pen].I.R.[Dab].T.[NCC[C@@H](N[*:1])C(=O)[*:2]].K.C.[Dab].R.Y}$PEPTIDE1,PEPTIDE1,6:R3-13:R3$$$V2.0)	0.5 µg/mL	0.125 µg/mL	0.125 µg/mL	0%
CC[C@H](C)[C@H](NC(=O)[C@@H]1C[C@@H](O)CN1C(=O)[C@@H](N)C(C)C)C(=O)N[C@H](C(=O)N[C@@H](Cc1ccc(O)cc1)C(=O)N[C@@H]1C(=O)N[C@@H](CO)C(=O)N[C@@H](CCCNC(=N)N)C(=O)N[C@@H](CCN)C(=O)N[C@@H]([C@@H](C)O)C(=O)N[C@H](CCN)C(=O)N[C@@H](CCCCN)C(=O)N[C@H](C(=O)N[C@@H](CCN)C(=O)N[C@@H](CCCNC(=N)N)C(=O)N[C@@H](Cc2ccc(O)cc2)C(=O)O)CSSC1(C)C)[C@@H](C)O [Example 164] (HELM PEPTIDE1{V.[Hyp].I.T.Y.[Pen].S.R.[Dab].T.[NCC[C@@H](N[*:1])C(=O)[*:2]].K.C.[Dab].R.Y}$PEPTIDE1,PEPTIDE1,6:R3-13:R3$$$V2.0)	0.25 µg/mL	0.25 µg/mL	0.125 µg/mL	0%
CC[C@H](C)[C@H](NC(=O)[C@@H]1C[C@@H](O)CN1C(=O)[C@@H](N)C(C)C)C(=O)N[C@H](C(=O)N[C@@H](Cc1ccc(O)cc1)C(=O)N[C@@H]1C(=O)N[C@@H]([C@@H](C)O)C(=O)N[C@@H](CCCNC(=N)N)C(=O)N[C@@H](CCN)C(=O)N[C@@H]([C@@H](C)O)C(=O)N[C@H](CCN)C(=O)N[C@@H](CCCCN)C(=O)N[C@H](C(=O)N[C@@H](CCN)C(=O)N[C@@H](CCCNC(=N)N)C(=O)N[C@@H](Cc2ccc(O)cc2)C(=O)O)CSSC1(C)C)[C@@H](C)O [Example 165] (HELM PEPTIDE1{V.[Hyp].I.T.Y.[Pen].T.R.[Dab].T.[NCC[C@@H](N[*:1])C(=O)[*:2]].K.C.[Dab].R.Y}$PEPTIDE1,PEPTIDE1,6:R3-13:R3$$$V2.0)	0.5 µg/mL	0.125 µg/mL	0.125 µg/mL	0%
CC[C@H](C)[C@H](NC(=O)[C@@H]1C[C@@H](O)CN1C(=O)[C@@H](N)C(C)C)C(=O)N[C@H](C(=O)N[C@@H](Cc1ccc(O)cc1)C(=O)N[C@@H]1C(=O)N[C@@H](CCCCN)C(=O)N[C@@H](CCCNC(=N)N)C(=O)N[C@@H](CCN)C(=O)N[C@@H]([C@@H](C)O)C(=O)N[C@H](CCN)C(=O)N[C@@H](CCCCN)C(=O)N[C@H](C(=O)N[C@@H](CCN)C(=O)N[C@@H](CCCNC(=N)N)C(=O)N[C@@H](Cc2ccc(O)cc2)C(=O)O)CSSC1(C)C)[C@@H](C)O [Example 166] (HELM PEPTIDE1{V.[Hyp].I.T.Y.[Pen].K.R.[Dab].T.[NCC[C@@H](N[*:1])C(=O)[*:2]].K.C.[Dab].R.Y}$PEPTIDE1,PEPTIDE1,6:R3-13:R3$$$V2.0)	0.5 µg/mL	0.125 µg/mL	0.25 µg/mL	0%
CC[C@H](C)[C@H](NC(=O)[C@@H]1C[C@@H](O)CN1C(=O)[C@@H](N)C(C)C)C(=O)N[C@H](C(=O)N[C@@H](Cc1ccc(O)cc1)C(=O)N[C@@H]1C(=O)N[C@@H](CC(N)=O)C(=O)N[C@@H](CCCNC(=N)N)C(=O)N[C@@H](CCCCN)C(=O)N[C@@H]([C@@H](C)O)C(=O)N[C@H](CCN)C(=O)N[C@@H](CCCCN)C(=O)N[C@H](C(=O)N[C@@H](CCN)C(=O)N[C@@H](CCCNC(=N)N)C(=O)N[C@@H](Cc2ccc(O)cc2)C(=O)O)CSSC1(C)C)[C@@H](C)O [Example 167] (HELM PEPTIDE1{V.[Hyp].I.T.Y.[Pen].N.R.K.T.[NCC[C@@H](N[*:1])C(=O)[*:2]].K.C.[Dab].R.Y}$PEPTIDE1,PEPTIDE1,6:R3-13:R3$$$V2.0)	0.5 µg/mL	0.125 µg/mL	0.25 µg/mL	0%
CC[C@H](C)[C@H](NC(=O)[C@@H]1C[C@@H](O)CN1C(=O)[C@@H](N)C(C)C)C(=O)N[C@H](C(=O)N[C@@H](Cc1ccc(O)cc1)C(=O)N[C@@H]1C(=O)N[C@@H](CC(N)=O)C(=O)N[C@@H](CCCNC(=N)N)C(=O)N[C@@H](CCCNC(=N)N)C(=O)N[C@@H]([C@@H](C)O)C(=O)N[C@H](CCN)C(=O)N[C@@H](CCCCN)C(=O)N[C@H](C(=O)N[C@@H](CCN)C(=O)N[C@@H](CCCNC(=N)N)C(=O)N[C@@H](Cc2ccc(O)cc2)C(=O)O)CSSC1(C)C)[C@@H](C)O [Example 168] (HELM PEPTIDE1{V.[Hyp].I.T.Y.[Pen].N.R.R.T.[NCC[C@@H](N[*:1])C(=O)[*:2]].K.C.[Dab].R.Y}$PEPTIDE1,PEPTIDE1,6:R3-13:R3$$$V2.0)	0.25 µg/mL	0.5 µg/mL	0.125 µg/mL	0%
CC[C@H](C)[C@@H]1NC(=O)[C@@H](CCN)NC(=O)[C@H]([C@@H](C)O)NC(=O)[C@H](CCN)NC(=O)[C@H](CCCNC(=N)N)NC(=O)[C@H](CC(N)=O)NC(=O)[C@@H](NC(=O)[C@H](Cc2ccc(O)cc2)NC(=O)[C@@H](NC(=O)[C@@H](NC(=O)[C@@H]2C[C@@H](O)CN2C(=O)[C@@H](N)C(C)C)[C@@H](C)CC)[C@@H](C)O)C(C)(C)SSC[C@@H](C(=O)N[C@@H](CCN)C(=O)N[C@@H](CCCNC(=N)N)C(=O)N[C@@H](Cc2ccc(O)cc2)C(=O)O)NC1=O [Example 169] (HELM PEPTIDE1{V.[Hyp].I.T.Y.[Pen].N.R.[Dab].T.[NCC[C@@H](N[*:1])C(=O)[*:2]].I.C.[Dab].R.Y}$PEPTIDE1,PEPTIDE1,6:R3-13:R3$$$V2.0)	0.5 µg/mL	0.25 µg/mL	0.5 µg/mL	0%
CC[C@H](C)[C@H](NC(=O)[C@@H]1C[C@@H](O)CN1C(=O)[C@@H](N)C(C)C)C(=O)N[C@H](C(=O)N[C@@H](Cc1ccc(O)cc1)C(=O)N[C@@H]1C(=O)N[C@@H](CC(N)=O)C(=O)N[C@@H](CCCNC(=N)N)C(=O)N[C@@H](CCN)C(=O)N[C@@H]([C@@H](C)O)C(=O)N[C@H](CCN)C(=O)N[C@@H](CO)C(=O)N[C@H](C(=O)N[C@@H](CCN)C(=O)N[C@@H](CCCNC(=N)N)C(=O)N[C@@H](Cc2ccc(O)cc2)C(=O)O)CSSC1(C)C)[C@@H](C)O [Example 170] (HELM PEPTIDE1{V.[Hyp].I.T.Y.[Pen].N.R.[Dab].T.[NCC[C@@H](N[*:1])C(=O)[*:2]].S.C.[Dab].R.Y}$PEPTIDE1,PEPTIDE1,6:R3-13:R3$$$V2.0)	0.5 µg/mL	0.5 µg/mL	0.25 µg/mL	0%
CC[C@H](C)[C@H](NC(=O)[C@@H]1C[C@@H](O)CN1C(=O)[C@@H](N)C(C)C)C(=O)N[C@H](C(=O)N[C@@H](Cc1ccc(O)cc1)C(=O)N[C@@H]1C(=O)N[C@@H](CC(N)=O)C(=O)N[C@@H](CCCNC(=N)N)C(=O)N[C@@H](CCN)C(=O)N[C@@H]([C@@H](C)O)C(=O)N[C@H](CCN)C(=O)N[C@@H](Cc2ccc(O)cc2)C(=O)N[C@H](C(=O)N[C@@H](CCN)C(=O)N[C@@H](CCCNC(=N)N)C(=O)N[C@@H](Cc2ccc(O)cc2)C(=O)O)CSSC1(C)C)[C@@H](C)O [Example 171] (HELM PEPTIDE1{V.[Hyp].I.T.Y.[Pen].N.R.[Dab].T.[NCC[C@@H](N[*:1])C(=O)[*:2]].Y.C.[Dab].R.Y}$PEPTIDE1,PEPTIDE1,6:R3-13:R3$$$V2.0)	0.25 µg/mL	0.5 µg/mL	0.5 µg/mL	0%
CC[C@H](C)[C@H](NC(=O)[C@@H]1C[C@@H](O)CN1C(=O)[C@@H](N)C(C)C)C(=O)N[C@H](C(=O)N[C@@H](Cc1ccc(O)cc1)C(=O)N[C@@H]1C(=O)N[C@@H](CC(N)=O)C(=O)N[C@@H](CCCNC(=N)N)C(=O)N[C@@H](CCN)C(=O)N[C@@H]([C@@H](C)O)C(=O)N[C@H](CCN)C(=O)N[C@@H](Cc2c[nH]c3ccccc23)C(=O)N[C@H](C(=O)N[C@@H](CCN)C(=O)N[C@@H](CCCNC(=N)N)C(=O)N[C@@H](Cc2ccc(O)cc2)C(=O)O)CSSC1(C)C)[C@@H](C)O [Example 172] (HELM PEPTIDE1{V.[Hyp].I.T.Y.[Pen].N.R.[Dab].T.[NCC[C@@H](N[*:1])C(=O)[*:2]].W.C.[Dab].R.Y}$PEPTIDE1,PEPTIDE1,6:R3-13:R3$$$V2.0)	0.5 µg/mL	0.5 µg/mL	0.5 µg/mL	0%
